{
  "source": "ChEMBL document CHEMBL3994660",
  "about": "“Novel 5-arylthio-5H-chromenopyridines as a new class of anti-fibrotic agents” (Bioorg Med Chem Lett, 2017)",
  "key": {"[1]": {"experiment": "Cytotoxicity against human Huh7.5 cells infected with HCV assessed as reduction in cell viability at 5 to 25 uM after 6 hrs by CellTiter-Glo luminescent assay", "format": "cell-based", "settings": "huh7.5, 6 h"}, "Hepatitis C virus [2]": {"tested_on": "Hepatitis C virus", "experiment": "Inhibition of HCV NS5A protein expression infected in human Huh7.5 cells at 5 to 25 uM after 6 hrs by Western blot method", "format": "functional, cell-based", "settings": "Hepacivirus hominis"}, "LX2 [3]": {"tested_on": "LX2", "experiment": "Antifibrotic activity against human LX2 cells assessed as inhibition of spindle shaped cells by measuring round shaped cells at 10 uM after 6 hrs by light microscopic method", "format": "functional, cell-based"}, "Hepatitis C virus [4]": {"tested_on": "Hepatitis C virus", "experiment": "Inhibition of HCV NS3 protein expression infected in human Huh7.5 cells at 10 uM after 6 hrs by Western blot method relative to control", "format": "functional, Hepacivirus hominis", "settings": "Huh7.5, 6 h"}, "Hepatitis C virus [5]": {"tested_on": "Hepatitis C virus", "experiment": "Inhibition of HCV NS3 protein expression infected in human Huh7.5 cells at 5 uM after 6 hrs by Western blot method relative to control", "format": "functional, Hepacivirus hominis", "settings": "Huh7.5, 6 h"}, "Hepatitis C virus [6]": {"tested_on": "Hepatitis C virus", "experiment": "Inhibition of HCV NS3 protein expression infected in human Huh7.5 cells at 25 uM after 6 hrs by Western blot method relative to control", "format": "functional, Hepacivirus hominis", "settings": "Huh7.5, 6 h"}, "[7]": {"experiment": "Cytotoxicity against human LX2 cells assessed as reduction in cell viability at 5 to 25 uM after 6 hrs by CellTiter-Glo luminescent assay", "format": "cell-based", "settings": "lx2, 6 h"}, "LX2 [8]": {"tested_on": "LX2", "experiment": "Antifibrotic activity against human LX2 cells assessed as inhibition of spindle shaped cells by measuring round shaped cells at 25 uM after 6 hrs by light microscopic method", "format": "functional, cell-based"}},
  "note": "Calls of active or inactive are those of the source. The rule behind the calls is not given here.",
  "data": [
    {"compound": "CCN(CC)c1ccc2c(c1)Oc1nc(N)c(C#N)c(N)c1C2Sc1ccc(C)cc1", "note": "(stereo unspecified)", "values": [
      {"measurement": "Activity", "setting": "[1]", "result": "Non-Toxic"},
      {"measurement": "inhibition", "setting": "Hepatitis C virus [2]", "result": "inactive"}
    ]},
    {"compound": "CCN(CC)c1ccc2c(c1)Oc1nc(N)c(C#N)c(N)c1C2Sc1ccc(F)cc1", "note": "(stereo unspecified)", "values": [
      {"measurement": "inhibition", "setting": "LX2 [3]", "result": "Active"},
      {"measurement": "inhibition at 10 µM", "setting": "Hepatitis C virus [4]", "result": 3, "unit": "%"},
      {"measurement": "inhibition at 5 µM", "setting": "Hepatitis C virus [5]", "result": 33, "unit": "%"},
      {"measurement": "Activity", "setting": "[1]", "result": "Non-Toxic"},
      {"measurement": "inhibition at 25 µM", "setting": "Hepatitis C virus [6]", "result": 0, "unit": "%"},
      {"measurement": "inhibition", "setting": "Hepatitis C virus [2]", "result": "inactive"},
      {"measurement": "Activity", "setting": "[7]", "result": "Non-Toxic"}
    ]},
    {"compound": "CCc1ccc(SC2c3ccc(N(CC)CC)cc3Oc3nc(N)c(C#N)c(N)c32)cc1", "note": "(stereo unspecified)", "values": [
      {"measurement": "inhibition at 10 µM", "setting": "Hepatitis C virus [4]", "result": 0, "unit": "%"},
      {"measurement": "inhibition at 5 µM", "setting": "Hepatitis C virus [5]", "result": 47, "unit": "%"},
      {"measurement": "Activity", "setting": "[1]", "result": "Non-Toxic"},
      {"measurement": "inhibition at 25 µM", "setting": "Hepatitis C virus [6]", "result": 19, "unit": "%"},
      {"measurement": "inhibition", "setting": "Hepatitis C virus [2]", "result": "inactive"},
      {"measurement": "Activity", "setting": "[7]", "result": "Non-Toxic"},
      {"measurement": "inhibition", "setting": "LX2 [8]", "result": "Active"}
    ]},
    {"compound": "CCN(CC)c1ccc2c(c1)Oc1nc(N)c(C#N)c(N)c1C2Sc1ccc(SC)cc1", "note": "(stereo unspecified)", "values": [
      {"measurement": "inhibition at 10 µM", "setting": "Hepatitis C virus [4]", "result": 35, "unit": "%"},
      {"measurement": "inhibition at 5 µM", "setting": "Hepatitis C virus [5]", "result": 29, "unit": "%"},
      {"measurement": "Activity", "setting": "[1]", "result": "Non-Toxic"},
      {"measurement": "inhibition at 25 µM", "setting": "Hepatitis C virus [6]", "result": 45, "unit": "%"},
      {"measurement": "inhibition", "setting": "Hepatitis C virus [2]", "result": "inactive"},
      {"measurement": "inhibition", "setting": "LX2 [8]", "result": "Active"}
    ]},
    {"compound": "CCN(CC)c1ccc2c(c1)Oc1nc(N)c(C#N)c(N)c1C2Sc1ccc(Cl)cc1", "note": "(stereo unspecified)", "values": [
      {"measurement": "inhibition at 10 µM", "setting": "Hepatitis C virus [4]", "result": 34, "unit": "%"},
      {"measurement": "inhibition at 5 µM", "setting": "Hepatitis C virus [5]", "result": 42, "unit": "%"},
      {"measurement": "Activity", "setting": "[1]", "result": "Non-Toxic"},
      {"measurement": "inhibition at 25 µM", "setting": "Hepatitis C virus [6]", "result": 47, "unit": "%"},
      {"measurement": "inhibition", "setting": "Hepatitis C virus [2]", "result": "inactive"},
      {"measurement": "Activity", "setting": "[7]", "result": "Toxic"}
    ]},
    {"compound": "CCN(CC)c1ccc2c(c1)Oc1nc(N)c(C#N)c(N)c1C2Sc1ccc(OC)cc1", "note": "(stereo unspecified)", "values": [
      {"measurement": "inhibition at 10 µM", "setting": "Hepatitis C virus [4]", "result": 27, "unit": "%"},
      {"measurement": "inhibition at 5 µM", "setting": "Hepatitis C virus [5]", "result": 47, "unit": "%"},
      {"measurement": "Activity", "setting": "[1]", "result": "Non-Toxic"},
      {"measurement": "inhibition at 25 µM", "setting": "Hepatitis C virus [6]", "result": 28, "unit": "%"},
      {"measurement": "inhibition", "setting": "Hepatitis C virus [2]", "result": "inactive"},
      {"measurement": "Activity", "setting": "[7]", "result": "Toxic"}
    ]},
    {"compound": "CCN(CC)c1ccc2c(c1)Oc1nc(N)c(C#N)c(N)c1C2Sc1ccc(Br)cc1", "note": "(stereo unspecified)", "values": [
      {"measurement": "inhibition", "setting": "LX2 [3]", "result": "Active"},
      {"measurement": "inhibition at 10 µM", "setting": "Hepatitis C virus [4]", "result": 49, "unit": "%"},
      {"measurement": "inhibition at 5 µM", "setting": "Hepatitis C virus [5]", "result": 59, "unit": "%"},
      {"measurement": "Activity", "setting": "[1]", "result": "Non-Toxic"},
      {"measurement": "inhibition at 25 µM", "setting": "Hepatitis C virus [6]", "result": 32, "unit": "%"},
      {"measurement": "inhibition", "setting": "Hepatitis C virus [2]", "result": "inactive"},
      {"measurement": "Activity", "setting": "[7]", "result": "Non-Toxic"}
    ]}
  ]
}
